{"source": "patent US7572903B1", "about": "“Method of regulation of bacterial persister status” (priority 2005, dated 2009)", "type_in_all_cases": "cell-based, Escherichia coli", "key": {"[1]": {"test_system": "E. coli K-12 C600::mTn5gusA-pgfp21", "settings": "mid-log phase", "experimental": "In the latter set of experiments reaction mixtures included nutrient broth (25% normal strength) in order to facilitate growth during the exposure. […] At various time intervals samples (0.1 mL) were removed and serially diluted either in sterile phosphate buffered saline (pH 7, 0.1M) or lecithin (2% w/v)—tween 80 (3% w/v) broth as a specific neutralizer of quaternary ammonium biocides (Wright, et al., J. App. Bacterial. 62:309-314, 1986). Samples of appropriate dilutions were plated, in triplicate, onto nutrient agar and colonies counted after 16 hour incubation at 37° C. Survival was expressed relative to untreated control suspensions.\n(§1) When cells were required for culture and/or susceptibility determinations collections were made of discrete fractions of cells within the upper 1 and 5%, and the lower 1, 5 and 10% of fluorescence intensity. Control populations consisted of the entire population of cells having been passed through the cytometer and sorter. Cell sort rates of circa 10^3/sec were deployed enabling collection of circa 10^4-5 cfu within 10 minutes. Cell concentrations were adjusted from the cytometer count by dilution with fresh PBS. Suspensions of collected cells were used immediately for microbiological analysis.\nCollections of poorly fluorescent cells from mid-log phase cultures were made and susceptibility re-determined towards tetradecylbenzalkonium chloride, and towards various other treatment agents."}, "[2]": {"test_system": "E. coli K-12 C600::mTn5gusA-pgfp21", "test": "Time-dependent survival of FACS-sorted fractions exposed to tetradecylbenzalkonium chloride", "experimental": "In the latter set of experiments reaction mixtures included nutrient broth (25% normal strength) in order to facilitate growth during the exposure. This was necessary in order to get adequate killing by β-lactam antibiotics. At various time intervals samples (0.1 mL) were removed and serially diluted either in sterile phosphate buffered saline (pH 7, 0.1M) or lecithin (2% w/v)—tween 80 (3% w/v) broth as a specific neutralizer of quaternary ammonium biocides (Wright, et al., J. App. Bacterial. 62:309-314, 1986). Samples of appropriate dilutions were plated, in triplicate, onto nutrient agar and colonies counted after 16 hour incubation at 37° C. Survival was expressed relative to untreated control suspensions.\nas §1\nThe FACS vantage was also deployed to separate populations of cells, from stationary phase cultures, corresponding to the lower (1, 5 and 10%) fluorescence intensity cells and the upper (1 and 5%) fluorescence intensity cells (FIG. 1). These cells were immediately subjected to exposure to tetradecyl-benzalkonium chloride (3.68 μg/mL) for various times up to 20 minutes. After neutralization in lecithin-tween 80 broth the numbers of surviving cells was determined by plate count. In all instances the shapes of the survival curves were non-linear indicating an initial rapid phase of killing followed by a plateau phase. […] Survival beyond 10 minutes exposure therefore reflected the presence of non-susceptible cells."}, "[3]": {"test_system": "E. coli K-12 C600::mTn5gusA-pgfp21 intergenic knockouts", "test": "Susceptibility of putative intergenic knockouts towards cetrimide USP", "source_text": "Intergenic knockouts were made to E. coli K-12 C600::mTn5gusA-pgfp21 with respect to IG216, IG477, IG870, IG873, IG1602, IG1604 and IG1484 using the protocol described by Datsenko, et al. (Proceedings of the National Academy of Sciences of the United States of America 97, 6640-6645, 2000). Plasmid pKD3 was used as a template to generate PCR products with a selectable antibiotic resistance marker (chloramphenicol) and 40 nt homology extensions relating the genes flanking each targeted intergenic region. Modifications of the method included a 10-fold increase in the concentration of L-arabinose (10 mM) for induction of λ Red genes in the helper plasmid pKD46, and 50-fold increases in the amount of PCR product (500 ng) used to transform E. coli K-12 C600 containing pKD46. Further amendments to the method were associated with recovery of transformants following electroporation. […]\nPutative intergenic knockouts were grown as liquid culture in nutrient broth, harvested at mid-exponential phase, washed in PBS as described in section 2.1 (a) and adjusted to 1×10^5 cfu/ml in PBS. […] The viability of cells in the antimicrobial and control tubes was monitored after 1 hour incubation at 37° C. at 200 rpm in an orbital shaker. […]"}, "[4]": {"test_system": "E. coli CC118 overexpression and suppression mutants", "test": "Antimicrobial susceptibility of conditional overexpression and antisense suppression strains (cetrimide challenge)", "settings": "relative to parental E. coli CC118, 9 μg/ml cetrimide 1 h", "experimental": "Conditional overexpression and anti-sense suppression strains of E. coli (Table 14) were grown as liquid cultures in nutrient broth. Expression of target sense and antisense sequences was induced by addition of IPTG (Bioline), during early exponential phase, to a final concentration of 0.1 mM. Cells were grown until mid-late exponential (1.75 h after IPTG addition) or to stationary phase (14.5 h after ITPG addition), and harvested by centrifugation (10,000 x g, 10 min) at 4° C. The supernatants were decanted and the pellets suspended into equal volumes of PBS. The centrifugation and washing steps were repeated twice, after which the pellets were re-suspended in PBS to an optical density (OD470 nm) of 1.0, corresponding to approximately 1-2×10^8 cfu/ml mid-exponential or stationary phase cells.\nCells were exposed to 9 μg/ml cetrimide USP for 1 hr in PBS with final concentration of 5×10^7 cells/ml. Controls without the addition of the biocide containing the same concentration of cells and PBS were run in parallel. Following incubation samples (0.1 ml) were removed and serially diluted in lecithin (2% w/v)—tween 80 (3% w/v) broth as a specific neutralizer of quaternary ammonium biocides (Wright, et al., J. Appd. Bacteriol, 62, 309-314, 1986). Samples of appropriate dilutions were plated, in triplicate, onto nutrient agar and colonies counted after 16 h incubation at 37° C. Survival was expressed relative to untreated control suspensions that were similarly treated with IPTG. […] The susceptibility of the parental strain E. coli (CC118 towards cetrimide USP was investigated in the same experiments and was used as a reference to determine the effect of overexpression and antisense suppression of target sequences."}}, "note": "Like-named read-outs stand apart in the source and are kept apart here. Bridge positions count the residues as written; N and C are the ends. Square brackets hold non-standard residues; d marks the D form. Peptide text beside a SMILES is read from it. * marks the point of attachment. Ileψ(thiazoline)Cys = CC[C@H](C)[C@H](N)C1=N[C@H](C(=O)*)CS1; dOrn = NCCC[C@@H](N)C(=O)O"}
{"molecule": "NCC[C@H](O)C(=O)N[C@@H]1C[C@H](N)[C@@H](O[C@H]2O[C@H](CN)[C@@H](O)[C@H](O)[C@H]2O)[C@H](O)[C@H]1O[C@H]1O[C@H](CO)[C@@H](O)[C@H](N)[C@H]1O", "note": "[Amikacin, amikacin]", "values": [{"measurement": "percentage survival relative to untreated controls", "setting": "[1]; 0-5% FI fraction, amikacin 0.75 μg/ml, 1 hour, SD in parenthesis", "value": "68 (17) %"}, {"measurement": "percentage survival relative to untreated controls", "setting": "[1]; 95-100% FI fraction, amikacin 0.75 μg/ml, 1 hour, SD in parenthesis", "value": "32 (0) %"}, {"measurement": "percentage survival relative to untreated controls", "setting": "[1]; Control 0-100% fluorescence fraction, amikacin 0.75 μg/ml, 1 hour, SD of triplicate in parenthesis", "value": "39 (3.0) %"}]}
{"molecule": "CC[C@H](C)[C@H](N)C1=N[C@H](C(=O)N[C@@H](CC(C)C)C(=O)N[C@H](CCC(=O)O)C(=O)N[C@H](C(=O)N[C@H]2CCCCNC(=O)[C@H](CC(N)=O)NC(=O)[C@@H](CC(=O)O)NC(=O)[C@H](Cc3cnc[nH]3)NC(=O)[C@@H](Cc3ccccc3)NC(=O)[C@H]([C@@H](C)CC)NC(=O)[C@@H](CCCN)NC2=O)[C@@H](C)CC)CS1", "note": "[Bacitracin, bacitracin] ({Ileψ(thiazoline)Cys}-L[dE]IK[dOrn]I[dF]H[dD]N; lactam 4-C)", "values": [{"measurement": "percentage survival relative to untreated controls", "setting": "[1]; 0-5% FI fraction, bacitracin 0.7 mg/ml, 40 min, SD in parenthesis", "value": "83 (1.5) %"}, {"measurement": "percentage survival relative to untreated controls", "setting": "[1]; 95-100% FI fraction, bacitracin 0.7 mg/ml, 40 min, SD in parenthesis", "value": "34 (4.6) %"}, {"measurement": "percentage survival relative to untreated controls", "setting": "[1]; Control 0-100% fluorescence fraction, bacitracin 0.7 mg/ml, 40 min, SD in parenthesis", "value": "57 (8.5) %"}]}
{"molecule": "O=C(O)c1cn(C2CC2)c2cc(N3CCNCC3)c(F)cc2c1=O", "note": "[Ciprofloxacin, ciprofloxacin]", "values": [{"measurement": "percentage survival relative to untreated controls", "setting": "[1]; 0-5% FI fraction, ciprofloxacin 0.05 μg/ml, 1 hour, SD in parenthesis", "value": "44 (2.0) %"}, {"measurement": "percentage survival relative to untreated controls", "setting": "[1]; 95-100% FI fraction, ciprofloxacin 0.05 μg/ml, 1 hour, SD in parenthesis", "value": "35 (3.6) %"}, {"measurement": "percentage survival relative to untreated controls", "setting": "[1]; Control 0-100% fluorescence fraction, ciprofloxacin 0.05 μg/ml, 1 hour, SD in parenthesis", "value": "40 (0) %"}]}
{"molecule": "Tetradecylbenzalkonium chloride", "values": [{"measurement": "proportion of persister cells in the cell fraction", "setting": "[2]; least intensely fluorescent cell fraction (1%), stationary phase, 3.68 μg/mL, exposure up to 20 minutes", "value": "> 80", "unit": "%"}, {"measurement": "survival of cells", "setting": "[2]; most fluorescently intense cells, stationary phase, 3.68 μg/mL, after 1 minute exposure", "value": "eradicated beyond detection"}, {"measurement": "proportion of persisters in mid-log phase compared with stationary phase", "setting": "[2]; poorly fluorescent cells from mid-log phase cultures", "value": "substantially reduced"}]}
{"molecule": "cetrimide [Cetrimide USP]", "values": [{"measurement": "susceptibility of intergenic knockout clones compared with controls", "setting": "[3]; IG216, IG873, IG1484 and IG1602 knockouts, at both the lower and higher treatment level", "value": "profoundly changed"}, {"measurement": "susceptibility of intergenic knockout clones compared with controls", "setting": "[3]; all developed clones (IG216, IG477, IG870, IG873, IG1602, IG1604, IG1484), 0.6 and 2.0 μg/ml, 1 hour", "value": "substantially reduced"}, {"measurement": "percentage survival relative to untreated controls", "setting": "[1]; 0-5% FI fraction, cetrimide USP 0.5 μg/ml, 1 hour, SD in parenthesis", "value": "22 (3.7) %"}, {"measurement": "percentage survival relative to untreated controls", "setting": "[1]; 95-100% FI fraction, cetrimide USP 0.5 μg/ml, 1 hour, SD in parenthesis", "value": "2.5 (0.97) %"}, {"measurement": "percentage survival relative to untreated controls", "setting": "[1]; Control 0-100% fluorescence fraction, cetrimide USP 0.5 μg/ml, 1 hour, SD in parenthesis", "value": "18 (3.4) %"}, {"measurement": "Fold Change in persister fraction (fold increase)", "setting": "[4]; strain lit (+), exponential phase, IPTG 0.1 mM 1.75 h", "value": 3.05, "unit": "fold"}, {"measurement": "Fold Change in persister fraction (fold increase)", "setting": "[4]; strain lit (−), exponential phase, IPTG 0.1 mM 1.75 h", "value": 1.31, "unit": "fold"}, {"measurement": "Fold Change in persister fraction (fold decrease)", "setting": "[4]; strain lit (−), stationary phase, IPTG 0.1 mM 14.5 h", "value": 4.08, "unit": "fold decrease"}, {"measurement": "Fold Change in persister fraction (fold increase)", "setting": "[4]; strain mcrA (+), exponential phase, IPTG 0.1 mM 1.75 h", "value": 2.82, "unit": "fold"}, {"measurement": "Fold Change in persister fraction (fold increase)", "setting": "[4]; strain pin (+), exponential phase, IPTG 0.1 mM 1.75 h", "value": 10.38, "unit": "fold"}, {"measurement": "Fold Change in persister fraction (fold increase)", "setting": "[4]; strain pin (−), exponential phase, IPTG 0.1 mM 1.75 h", "value": 18.98, "unit": "fold"}, {"measurement": "Fold Change in persister fraction", "setting": "[4]; strain pin (−), stationary phase, IPTG 0.1 mM 14.5 h", "value": "No persisters detected"}, {"measurement": "Fold Change in persister fraction (fold decrease)", "setting": "[4]; strain yagL (+), exponential phase, IPTG 0.1 mM 1.75 h", "value": 1.01, "unit": "fold"}, {"measurement": "Fold Change in persister fraction (fold increase)", "setting": "[4]; strain ykgK (+), exponential phase, IPTG 0.1 mM 1.75 h", "value": 22.85, "unit": "fold"}, {"measurement": "Fold Change in persister fraction (fold decrease)", "setting": "[4]; strain ykgK (−), exponential phase, IPTG 0.1 mM 1.75 h", "value": 5.35, "unit": "fold"}, {"measurement": "Fold Change in persister fraction", "setting": "[4]; strain ykgK (−), stationary phase, IPTG 0.1 mM 14.5 h", "value": "No persisters detected"}, {"measurement": "Fold Change in persister fraction (fold decrease)", "setting": "[4]; strain ykgM (+), exponential phase, IPTG 0.1 mM 1.75 h", "value": 1.65, "unit": "fold"}, {"measurement": "Fold Change in persister fraction (fold decrease)", "setting": "[4]; strain ykgM (−), exponential phase, IPTG 0.1 mM 1.75 h", "value": 1.83, "unit": "fold"}, {"measurement": "Fold Change in persister fraction", "setting": "[4]; strain ykgM (−), stationary phase, IPTG 0.1 mM 14.5 h", "value": "No persisters detected"}]}
